# Reference: patent publication US4837342A, “Prostacyclin analogue, and blood circulation improving agent and anti-ulcer composition containing it as active ingredient” (Sagami Chemical Research Center, priority 1986, dated 1989)
# Like-named read-outs stand apart in the source and are kept apart here.
# Columns and labels:
# [1] = background; cited from earlier work
# [2] = system: Blood platelet (ADP agglutination); assay: Blood platelet agglutination inhibiting activity (ADP-induced), washed rabbit platelet suspension; assay type: cell-based, rabbit (Japanese white male rabbits); settings: for IC50: Oryctolagus cuniculus, Platelet, ADP 10 μM, concentration suppressing agglutination to 50%, read-out: Platelet agglutination inhibiting activity ED50, ADP agglutination; for Activity ratio, platelet agglutination inhibiting activity, ADP agglutination: relative to prostacyclin = 1
# Method: (§1) Blood platelet aggutination inhibiting activity
# (§2) Japanese white male rabbits having a weight of from 2.0 to 2.5 kg were used.
# (§3) Under anesthesia with sodium Pentobarbital, blood was sampled from the carotid artery, and mixed with a 1/7 volume of an anticoagulant citric acid dextrose solution. Then, the mixture was subjected to centrifugal separation at 140×g for 15 minutes, whereupon the supernatant (platelet rich plasma:PRP) was obtained. PRP was subjected to centrifugal separation at 1,300×g for 7 minutes. The blood platelet pellets thus obtained were washed with a HEPES buffer solution (pH 6.5) for washing blood platelets, and subjected to centrifugal separation at 1,300×g for 7 minutes. The blood platelet pellets washed twice under such condition, were suspended in a suspending liquid (a buffer solution for washing blood platelets, which contains 0.1% of human fibrinogen, 1.8 mM of CaCl2 and 1.2 mM of MgCl2) to obtain a blood platelet suspension having a concentration of from 5×10^8 to 8×10^8 platelets/ml.
# (§4) The platelet agglutination ability was measured by means of an agglutination meter. To 380 μl of the platelet suspension, 10 μl of a test compound or a solvent as the control, was added. Three minutes later, 10 μl of a platelet agglutinating substance (10 μM of ADP or 1 μg/ml of collagen, as the final concentration) was added thereto to induce agglutination.
# (§5) The blood platelet agglutination inhibiting activity of each test compound was represented by ED50 (i.e. the concentration of the test compound where the platelet agglutination is suppressed to 50%).
# [3] = system: Blood platelet (Collagen agglutination); assay: Blood platelet agglutination inhibiting activity (collagen-induced), washed rabbit platelet suspension; assay type: cell-based, rabbit (Japanese white male rabbits); settings: for IC50: Oryctolagus cuniculus, Platelet, collagen 1 μg/ml, concentration suppressing agglutination to 50%, read-out: Platelet agglutination inhibiting activity ED50, Collagen agglutination; for Activity ratio, platelet agglutination inhibiting activity, Collagen agglutination: relative to prostacyclin = 1
# Method: as §1, §2, §3, §4, §5
# coronary artery = assay: Blood flow-increasing activity in the coronary artery, anesthetized dog; assay type: in vivo, crossbred adult dog; settings: for Blood flow increase in coronary artery / ED50: dog, near arterial injection; for Blood flow increase in coronary artery: at 3 μg/kg; for Activity ratio, blood flow-increasing activity in coronary artery: relative to prostacyclin = 1; for ED50: Canis lupus familiaris, reactive hyperemia = 100%
# Method: Blood flow-increasing activity in the coronary artery
# A crossbred adult dog having a weight of from 9 to 15 kg was anesthetized with sodium Pentobarbital and subjected to thoractomy under artificial respiration. After pericardiectomy, the frontal descending branch of the left coronary artery was separated from the surrounding tissues, and a blood flow-measuring probe was attached thereto under sodium heparin treatment. The coronary blood flow was measured by using an electromagnetic flow meter. The test compound was injected into the coronary artery by near arterial injection, and the blood flow-increasing activity in the coronay artery was represented by ED50 (i.e. the dose of a test compound at which the blood flow increases by 50%, as evaluated on the basis that the blood flow increase by the reactive hyperemia caused by releasing the blood flow of the coronary artery after blocking it for 15 seconds, is evaluated to be 100%).
# vertebral artery = assay: Blood flow-increasing activity in the vertebral artery, anesthetized dog; assay type: in vivo, crossbred adult dog; settings: for ED50: Canis lupus familiaris, papaverine hydrochloride 100 μg/kg = 100%; for Activity ratio, blood flow-increasing activity in vertebral artery: relative to prostacyclin = 1
# Description: Blood flow-increasing activity in the vertebral artery
# A made or female crossbred adult dog having a weight of from 8 to 13 kg was anesthetized by intravenous administration of sodium Pentobarbital and subjected to thoractomy along the mediam line under artificial respiration to expose the left vertebral artery. Under sodium peparin treatment, a polyethylene cannula was inserted into the vertebral artery, and a blood flow-measuring probe was attached to its other end, to which a blood circulation tube led from the left femoral artery was connected, whereby the blood flow in the vertebral artery was measured by using an electromagnetic flow meter. The test compound was injected into the vertebral artery by near arterial injection, and the blood flow-increasingactivity in the vertebral artery was represented by ED50 (i.e. the dose of a test compound at which the blood flow increases by 50%, as evaluated on the basis that the blood flow increase (representing substantially the maximum reaction) by the administration of 100 μg/kg papaverine hydrochloride into the vertebral artery, is evaluated to be 100%).
# femoral artery = assay: Blood flow-increasing activity in the femoral artery, anesthetized dog; assay type: in vivo, crossbred adult dog; settings: for ED50: Canis lupus familiaris, papaverine hydrochloride 100 μg/kg = 100%; for Activity ratio, blood flow-increasing activity in femoral artery: relative to prostacyclin = 1
# Method: Blood flow-increasing activity in the femoral artery
# A male or female crossbred adult dog having a weight of from 8 to 13 kg, was anesthetized by intravenous administration of sodium Pentobarbital. Then, a tracheal cannula was inserted, and artificial respiration was conducted. The blood flow in the femoral artery was measured by inserting the annula into the left femoral artery under sodium heparin treatment and providing a blood flow measuring probe at it other end, and by using an electromagnetic flow meter. The test compound was injected into the femoral artery by near arterial injection, and the blood flow-increasing activity in the femoral artery was represented by ED50 (i.e. the dose of a test compound at which the blood flow increases by 50%, as evaluated on the bais that the blood flow increase (representing substantially the maximum reaction) by the administration of 100 μg/kg of papaveline hydrochloride into the femoral artery, is evaluted to be 100%).
# diastolic blood pressure = assay: Hypotensive activity, anesthetized dog; assay type: in vivo, crossbred adult dog; settings: for Activity ratio, hypotensive activity: relative to prostacyclin = 1; for ED (50 mmHg): Canis lupus familiaris, iv
# Method: A male or female crossbred adult dog having a weight of from 9 to 14 kg was anesthetized by intraveous administration of sodium Pentobarbital. Then, the left carotid was exposed under artificial respiration, and the blood pressure was measured by using an electric blood pressure meter. […]
# Ethanol ulcer = Ethanol ulcer inhibiting activity; assay type: in vivo, Male wister rats; settings: rat; for Ethanol ulcer inhibition: oral administration of 30 μg/kg; for ED50: po, P.O., 30 minutes before 99.5% ethanol
# Method: Ethanol ulcer inhibiting activity
# Male wister rats having a weight of from 170 to 270 g were put into individual cages and starved for 24 hours. During this starvation period, the rats were allowed to drink water freely. A test compound or PGE2 as a comparative compound was orally administered in an amount of 3, 10 or 30 μg/kg, and 30 minutes later, 1 ml of 99.5% ethanol was orally administered to each rat. One hour after the ethanol administration, each rat was filled by cervical vertebral luxation, and the stomach was taken out. A 1% formaline solution was injected into the stomach in an amount of about 8 ml, and the stomach was fixed in the formaline solution for 30 minutes. After the fixing, the stomach was severed along the greater curvature, and the mucous membrane surface of the stomach was gently washed with flowing water. Then, the total length of damages appearing on the gastric glandular portion was obtained and used as the ulcer index.
# The ethanol ulcer inhibiting activity of a test compound was represented by ED50 (i.e. the dose of the test compound at which the ulcer was inhibited by 50% relative to the ulcer index of the non-treated group). To the non-treated group, the solvent was administered.
# Hydrochloric acid ulcer = Hydrochloric acid ulcer inhibiting activity; assay type: in vivo, wister rats; settings: rat; oral administration of 30 μg/kg; 0.6N hydrochloric acid; read-out: Hydrochloric acid ulcer inhibiting activity, Inhibiting rate
# Method: Hydrochloric acid ulcer inhibiting activity
# Male wister […] having a weight of from 190 to 240 g were used. The rats were starved in the same manner as in Test Example 6, and the test compounds and PGE2 were, respectively, orally administered in an amount of 30 μg/kg, and 30 minutes later, 1 ml of 0.6N hydrochloric acid was orally administered. Thirty minutes after the hydrochloric acid administration, each rat was killed by cervical vertebral luxation. Then, the stomach was taken out and fixed, and the ulcer index was obtained, in the same manner as in Test Example 6. The hydrochloric acid ulcer inhibiting activity of a test compound was represented by the inhibiting percentage (i.e. the percentage of the ulcer index of the treated group to the ulcer index of the non-treated group). To the non-treated group, the solvent was administered.
# Indomethacine ulcer = Indomethacine ulcer inhibiting activity; assay type: in vivo, Male wister rats; settings: rat
# Description: Indomethacine ulcer inhibiting activity
# Male wister rats having a weight of from 210 to 270 g were used. The rats were starved in the same manner as in Test Example 6. […] Three hours after the indomethacine administration, the test compound or PGE2 was again orally administered in the same amount. Six hours after the first administration of indomethacine, each rat was killed by cervical bertebral luxation. The stomach was taken out and fixed, and the ulcer index was obtained, in the same manner as in Test Example 6.
# The indomethacine ulcer inhibiting activity of a test compound was represented by the inhibiting percentage (i.e. the inhibiting percentage of the ulcer index of the treated group to the ulcer index of the non-treated group). To the non-treated group, the solvent was administered.
# [4] = oral administration of 60 μg/kg twice
# [5] = dog, at 3 μg/kg, near arterial injection
Compound,IC50 [2],"Activity ratio, platelet agglutination inhibiting activity, ADP agglutination [2]",IC50 [3],"Activity ratio, platelet agglutination inhibiting activity, Collagen agglutination [3]","Activity ratio, blood flow-increasing activity in coronary artery (coronary artery)","ED50 (vertebral artery; dog, near arterial injection)","Activity ratio, blood flow-increasing activity in vertebral artery (vertebral artery)","ED50 (femoral artery; dog, near arterial injection)","Activity ratio, blood flow-increasing activity in femoral artery (femoral artery)","Hypotensive activity, blood pressure decrease (diastolic blood pressure; dog, at 10 μg/kg i.v.)","Activity ratio, hypotensive activity (diastolic blood pressure)",Ethanol ulcer inhibition (Ethanol ulcer),inhibition in vivo at 0.03 mg/kg (Hydrochloric acid ulcer),Indomethacine ulcer inhibition (in words) (Indomethacine ulcer; [4]),ED50 (coronary artery),ED50 (Ethanol ulcer),other results
CCCCC[C@H](O)/C=C/[C@@H]1[C@H]2C=C(CCCCC(=O)O)C[C@H]2C[C@H]1O [9-(O)-methano-Δ^6 -PGI1],–,–,–,–,–,–,–,–,–,–,–,–,–,–,–,–,Chemical stability (in words) [1]: chemically stable
"CCCCC[C@H](O)/C=C/[C@@H]1[C@H]2CCC(CCCC(=O)O)=C[C@H]2C[C@H]1O [(a), 3-(3-carboxypropyl)-7-exo-(3α-hydroxy-trans-1-octenyl)-8-endo-hydroxy-cis-bicyclo[4,3,0]nona-2-ene]",1300 nM,1/455,970 nM,1/285,About 1/500,0.44 µg/kg,1/10,0.19 µg/kg,1/8,20 mmHg,1/192,20.0%,15.3%,Certain inhibition,–,–,Blood flow increase in coronary artery (coronary artery): 37.6%
"CCCCC[C@H](O)/C=C/[C@@H]1[C@H]2CCC(CCCCC(=O)O)=C[C@H]2C[C@H]1O [(e), 3-(4-carboxybutyl)-7-exo-(3α-hydroxy-trans-1-octenyl)-8-enodo-hydroxy-cis-bicyclo[4,3,0]nona-2-ene]",290 nM,1/100,280 nM,1/82,1/380,2.5 µg/kg,1/57,0.46 µg/kg,1/19,17.9 mmHg,1/213,28.5%,18.3%,Certain inhibition,3.8 µg/kg,–,–
"CCC#CCC(C)[C@H](O)/C=C/[C@@H]1[C@H]2CCC(CCOCC(=O)O)=C[C@H]2C[C@H]1O (stereo partly drawn) [(g), 3(3-oxa-4-carboxybutyl)-7-exo-(3α-hydroxy-4,8-dimethyl-1-trans-octen-6-ynyl)-8-endo-hydroxy-cis-bicyclo[4,3,0]nona-2-ene]",38 nM,1/13,–,–,1/55,2 µg/kg,1/45,0.72 µg/kg,1/30,–,1/67,–,42.1%,–,0.55 µg/kg,5.38 µg/kg,"ED (50 mmHg) (diastolic blood pressure; Table 2, read-out: Hypotensive activity ED50 mmHg): 16.1 µg/kg; ED (50 mmHg) (diastolic blood pressure; dog, femoral vein, Table 1, read-out: Hypotensive activity ED50 (dose reducing diastolic blood pressure by 50 mmHg)): 16 µg/kg; Indomethacine ulcer inhibiting activity, Inhibiting rate (Indomethacine ulcer; [4]): 57.3%"
CCC#CCC(C)[C@H](O)/C=C/[C@@H]1[C@H]2CCC(COCCC(=O)O)=C[C@H]2C[C@H]1O (stereo partly drawn) [(h)],> 3000 nM,–,–,–,–,–,–,–,–,15 mmHg,–,32.5%,21.3%,Certain inhibition,–,–,Blood flow increase in coronary artery (coronary artery): 25%; Blood flow increase in vertebral artery (vertebral artery; [5]): 28.5%; Blood flow increase in femoral artery (femoral artery; [5]): 31.7%
CCC#CCC(C)[C@H](O)/C=C/[C@@H]1[C@H]2CC=C(CCCCC(=O)O)C[C@H]2C[C@H]1O (stereo partly drawn) [(i)],22 nM,–,24 nM,1/7,1/360,0.8 µg/kg,1/18,0.56 µg/kg,1/23,24.5 mmHg,1/152,–,17.4%,–,3.6 µg/kg,5.89 µg/kg,"Hypotensive activity, blood pressure decrease (diastolic blood pressure; at 60 μg/kg i.v. (so in the source), Table 2): 24.5 mmHg; Indomethacine ulcer inhibiting activity, Inhibiting rate (Indomethacine ulcer; oral administration of 10 μg/kg twice (so in the source)): 49.5%"
O=C(O)CCC/C=C1\C[C@H]2C[C@@H](O)[C@H](/C=C/[C@@H](O)C3CCCC3)[C@H]2C1 [OP-41483],–,–,–,–,–,–,–,–,–,–,–,–,–,–,–,–,Chemical stability (in words) [1]: chemically stable
"CCCCC[C@H](O)/C=C/[C@H]1[C@H](O)CC(=O)[C@@H]1C/C=C\CCCC(=O)O [PGE2, reference compound]",–,–,–,–,–,–,–,–,–,–,–,–,61.6%,–,–,9.03 µg/kg,"Indomethacine ulcer inhibiting activity, Inhibiting rate (Indomethacine ulcer; oral administration 30 μg/kg twice): 98.3%"
